Results from ChEMBL document CHEMBL2074345, “Expression cloning and characterization of a novel multispecific organic anion transporter” (J Biol Chem, 1997).

Legend:
[1] = molecular target: T1, Solute carrier family 22 member 6 (Rattus norvegicus, UniProt O35956); assay: TP_TRANSPORTER: uptake in Xenopus laevis oocytes; format: functional, cell-based; details: oocyte
T1 sequence (O35956 whole entry): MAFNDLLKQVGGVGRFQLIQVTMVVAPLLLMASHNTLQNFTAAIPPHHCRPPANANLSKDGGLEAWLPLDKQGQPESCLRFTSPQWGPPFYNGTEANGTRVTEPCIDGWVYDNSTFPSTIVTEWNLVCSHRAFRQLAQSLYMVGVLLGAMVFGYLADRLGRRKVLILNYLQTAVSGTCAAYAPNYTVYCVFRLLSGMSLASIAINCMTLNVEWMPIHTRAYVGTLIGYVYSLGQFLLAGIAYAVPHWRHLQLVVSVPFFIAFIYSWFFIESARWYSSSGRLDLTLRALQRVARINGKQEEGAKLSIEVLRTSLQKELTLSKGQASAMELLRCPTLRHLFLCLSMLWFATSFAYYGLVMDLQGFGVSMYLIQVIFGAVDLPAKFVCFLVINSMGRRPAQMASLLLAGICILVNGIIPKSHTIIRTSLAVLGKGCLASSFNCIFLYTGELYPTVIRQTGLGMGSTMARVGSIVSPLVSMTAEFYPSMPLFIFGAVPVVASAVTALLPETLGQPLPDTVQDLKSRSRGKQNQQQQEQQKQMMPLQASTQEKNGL

[2] = molecular target: T1, Solute carrier family 22 member 6; assay: TP_TRANSPORTER: inhibition of PAH uptake (PAH: 2 uM, Ethacrynic acid; 2000 uM) in Xenopus laevis oocytes; format: functional, cell-based, Oocyte; details: probe PAH (2 uM)
[3] = molecular target: T1, Solute carrier family 22 member 6; assay: TP_TRANSPORTER: inhibition of PAH uptake (PAH: 2 uM, Nalidixate; 2000 uM) in Xenopus laevis oocytes; format: functional, cell-based, Oocyte; details: probe PAH (2 uM)
[4] = molecular target: T1, Solute carrier family 22 member 6; assay: TP_TRANSPORTER: inhibition of PAH uptake (PAH: 2 uM, Valproic acid; 2000 uM) in Xenopus laevis oocytes; format: functional, cell-based, Oocyte; details: probe PAH (2 uM)

Q: Nc1nc2c(ncn2[C@@H]2O[C@@H]3COP(=O)(O)O[C@H]3[C@H]2O)c(=O)[nH]1 was tested. Which Activity [1] did it give?
A: The Activity was “substrate [+]”.

Q: For O=C(O)CCC(=O)C(=O)O [ALPHA-KETOGLUTARIC ACID], which Activity [1] is on record?
A: Its Activity is “substrate [+]”.

Q: Which inhibition at 2000 µM [2] does the source give for C=C(CC)C(=O)c1ccc(OCC(=O)O)c(Cl)c1Cl [ETHACRYNIC ACID] here?
A: The inhibition at 2000 µM was over 85%.

Q: For CCn1cc(C(=O)O)c(=O)c2ccc(C)nc21 [NALIDIXIC ACID], which inhibition at 2000 µM [3] is on record?
A: The inhibition at 2000 µM was over 85%.

Q: CC[N+](CC)(CC)CC [TETRYLAMMONIUM] was tested. Which Activity [1] did it give?
A: Its Activity is “is not a substrate [-]”.

Q: With O=c1[nH]c(=O)c2[nH]c(=O)[nH]c2[nH]1 [URIC ACID] as the compound, how does the Activity [1] read?
A: The Activity was “substrate [+]”.

Q: How did the inhibition at 2000 µM [4] turn out when CCCC(CCC)C(=O)O [VALPROIC ACID] was run?
A: The inhibition at 2000 µM was over 85%.
